Laboratory results from patent US20210401916A1, “COMPOSITION FOR PREVENTION AND TREATMENT OF MUSCULAR DISEASES OR FOR IMPROVEMENT OF MUSCLE FUNCTION CONTAINING 3,5-DICAFFEOYLQUINIC ACID OR CHRYSANTHEMUM EXTRACT” (Industry-Academic Cooperation Foundation, Yonsei University, priority 2016, published 2021).

Experiments:
Assay type in all cases: cell-based
[1] = test system: PGC-1α; assay: PGC-1α luciferase reporter (pTA-Luc-PGC-1α plasmid) in transfected COS7 cells; settings: treated at 5, 10, 20, 40 or 60 μg/mL, **p<0.01, FIG. 11
Protocol: To confirm an effect of increasing an expression level of PGC-1α by treatment of COS7 cells with a Chrysanthemum extract, COS7 cells (ATCC) were transfected with a pTA-Luc-PGC-1α plasmid (Addgene) by the same method as described in Experimental Example 1-(1). Here, 10%, 30%, 50%, 70% and 90% ethanol extracts of Chrysanthemum, which were prepared in Example 1-(2), and the hot water extract of Chrysanthemum, which was prepared in Example 1-(5), were treated at 10 μg/mL.
To confirm an effect of increasing an expression level of PGC-1α by treatment of […] (ATCC) with the 95% ethanol extract of Chrysanthemum, the 95% ethanol extract of Chrysanthemum, prepared in Example 1-(2), was treated at 10 or 40 μg/mL by the same method as described in Experimental Example 1-(2).
(§1) To confirm an effect of increasing an expression level of PGC-1α by treatment of COS7 cells (ATCC) with 3,5-dicaffeoylquinic acid, the 3,5-dicaffeoylquinic acid obtained in Example 2 was treated at 5, 10, 20, 40 or 60 μg/mL by the same method as described in Experimental Example 1-(2), and the result is shown in FIG. 11.

[2] = test system: SIRT1; assay: SIRT1 luciferase reporter (pTA-Luc-SIRT1 plasmid) in transfected COS7 cells; settings: treated at 20, 40 or 60 μg/mL (5 to 60 μg/mL tested), **p<0.01, FIG. 10
Protocol: To confirm an effect of increasing an expression level of SIRT1 by treatment of COS7 cells (ATCC) with a Chrysanthemum extract, COS7 cells (ATCC) were transfected with a pTA-Luc-SIRT1 plasmid (Addgene) by the same method as described in Experimental Example 1-(1). Here, the 95% ethanol extract of Chrysanthemum prepared in Example 1-(2) was treated at 20, 30 or 40 μg/mL, and the result is shown in FIG. 4.
as §1, with “SIRT1” for “PGC-1α”, “1-(4),” for “1-(2),”, “10.” for “11.”

[3] = test system: atrogin-1; assay: atrogin-1 mRNA expression (RT-PCR) in TNF-α-treated L6 myotubes; settings: 50 ng/mL TNF-α, 1 or 10 μg/mL, 6 hours
Protocol: (§2) L6 myoblasts (ATCC), which are muscle cells, were added at 1×10^5 cell/mL to a 6-well plate with 10% FBS (Gibco)-containing DMEM (Hyclone). When the cell density reached approximately 80 to 85%, the medium in the well was removed, the cells were treated with 2% HS (Hyclone)-containing DMEM (Hyclone) to induce myotube differentiation. The differentiation was performed for total of 6 days by replacing the medium and a sample with fresh ones every two days. After differentiation, the 30% ethanol extract of Chrysanthemum prepared in Example 1-(2) was dissolved in DMEM (Hyclone) containing 50 ng/mL tumor necrosis factor alpha (TNF-α; PeproTech, Rocky Hills, N.J., USA) at 1 or 10 μg/mL, and used to treat the cells. After 6 hours, total RNA was isolated with a TRIzol reagent (Takara, Shiga, Japan). The isolated total RNA was quantified using a NanoDrop 1000 (Thermo Fisher Scientific Inc.). cDNA was synthesized from 16 μL of the quantified RNA using a Reverse Transcriptase Premix (ELPIS-Biotech, Daejeon, Korea) and a PCR machine (Gene Amp PCR System 2700; Applied Biosystems, Foster City, Calif., USA) under conditions of 42° C. for 55 minutes and 70° C. for 15 minutes. […]

[4] = test system: MuRF-1; assay: MuRF-1 mRNA expression (RT-PCR) in TNF-α-treated L6 myotubes; settings: 50 ng/mL TNF-α, 1 or 10 μg/mL, 6 hours
Protocol: as §2

[5] = test system: p-mTOR; assay: p-mTOR protein expression (western blot) in TNF-α-treated L6 myotubes; settings: 1 or 10 μg/mL, 24 hours
Protocol: To confirm the muscle protein expression-increasing activity of a Chrysanthemum extract in L6 myoblasts (ATCC), which are muscle cells, after differentiation by the same method as described in Experimental Example 2, a sample was treated with the 30% ethanol extract of Chrysanthemum prepared in Example 1-(2) at 1 or 10 μg/mL. The samples were treated for 24 hours, and then the cells were dissolved in an NP-40 buffer solution (ELPIS-Biotech) containing a proteinase inhibitor cocktail (Sigma, St. Louis, Mo., USA). The cells dissolved in the buffer solution were transferred to a 1.5 mL tube for centrifugation at 13,000 rpm for 10 minutes, and then only a supernatant was taken. The supernatant obtained previously was quantified by a Bradford method (Bio-Rad Laboratories Inc., Hercules, Calif., USA). The quantified protein was boiled for 5 minutes and isolated by electrophoresis with a 10% SDS-PAGE gel, and then the isolated proteins were transferred to a nitrocellulose membrane. p-mTOR, mTOR, p-4EBP1, 4EBP1, p-P70S6K and P70S6K and an α-tubulin primary antibody were diluted in 2.5% bovine serum albumin (BSA; bioWORLD, Dublin, Ohio, USA) at a ratio of 1:1000, and the proteins which were transferred to a nitrocellulose membrane were reacted at room temperature for 20 hours. […]

[6] = test system: MyoD; assay: MyoD mRNA expression (RT-PCR) during L6 myotube differentiation; settings: L6 muscle cells, 10, 20 or 40 μg/mL during differentiation, FIG. 14
Protocol: (§3) To confirm the muscle differentiation-promoting activity of a Chrysanthemum extract in L6 myoblasts (ATCC), which are muscle cells, the cells were treated with the 30% ethanol extract of Chrysanthemum, prepared in Example 1-(2), at 5, 10 or 20 μg/mL to induced myotube differentiation by the same method as described in Experimental Example 1-(6). RT-PCR was performed with specific primers (Bioneer) by the same method as described in Experimental Example 2, and the result is shown in FIG. 9.
(§4) To confirm muscle protein synthesis-promoting activity by treatment of L6 myoblasts (ATCC), which are muscle cells, with 3,5-dicaffeoylquinic acid, the cells were treated with the 3,5-dicaffeoylquinic acid obtained in Example 2 at 10, 20 or 40 μg/mL, and then mRNA expression levels of MyoD and myogenin were confirmed by the same method as described in Experimental Example 4.

[7] = test system: myogenin; assay: myogenin mRNA expression (RT-PCR) during L6 myotube differentiation; settings: L6 muscle cells, 10, 20 or 40 μg/mL during differentiation, FIG. 14
Protocol: as §3, §4

SMILES: O=C(/C=C/c1ccc(O)c(O)c1)O[C@@H]1CC(O)(C(=O)O)C[C@@H](OC(=O)/C=C/c2ccc(O)c(O)c2)C1O (stereo partly drawn) [3,5-dicaffeoylquinic acid, (3R,5R)-3,5-bis[[(E)-3-(3,4-dihydroxyphenyl)prop-2-enoyl]oxy]-1,4-dihydroxycyclohexane-1-carboxylic acid]
- expression level of PGC-1α [1]: significantly increased
- expression level of SIRT1 [2]: significantly increased
- mRNA expression level of atrogin-1 increased by TNF-α [3]: decreased in a concentration dependent manner
- mRNA expression level of MuRF-1 increased by TNF-α [4]: decreased in a concentration dependent manner
- p-mTOR protein expression level reduced by TNF-α [5]: increased in a concentration-dependent manner
- mRNA expression level of MyoD [6]: increased in a concentration-dependent manner
- mRNA expression level of myogenin [7]: increased in a concentration-dependent manner
